Like-named read-outs stand apart in the source and are kept apart here.
Columns and labels:
[1] = system: Key Broadleaf Weed and Crop Species; assay: Post-Emergent Test II: postemergent herbicidal activity, visual rating after 14 d (Table 7); assay type: in vivo; details: post-emergence, 336 h; for pest or weed control at 35 g/ha: 35 g ai/ha; for pest or weed control at 70 g/ha: 70 g ai/ha; for pest or weed control at 140 g/ha: 140 g ai/ha
How it was run: (§1)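 Greenhouse plants at first or second true leaf stage sprayed with compound in acetone/DMSO-based spray solution with crop oil concentrate and Triton X-155 at 187 L/ha, tested at highest rate and ½× to 1/16× dilutions; solvent blank controls. Injury rated visually 0–100% versus untreated plants after 14 d.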

[2] = system: Key Grass and Sedge Weeds as well as Grass Crops; assay: Post-Emergent Test II: postemergent herbicidal activity, visual rating after 14 d (Table 8); assay type: in vivo; details: post-emergence, 336 h; for pest or weed control at 35 g/ha: 35 g ai/ha; for pest or weed control at 70 g/ha: 70 g ai/ha; for pest or weed control at 140 g/ha: 140 g ai/ha
How it was run: as §1

[3] = lambsquarters (Chenopodium album), read-out: Visual Growth Reduction (%) 14 Days After Application CHEAL
[4] = oilseed rape, canola (Brassica napus), read-out: Visual Growth Reduction (%) 14 Days After Application BRSNN
[5] = redroot pigweed (Amaranthus retroflexus), read-out: Visual Growth Reduction (%) 14 Days After Application AMARE
[6] = sunflower (Helianthus annuus), read-out: Visual Growth Reduction (%) 14 Days After Application HELAN
[7] = velvetleaf (Abutilon theophrasti), read-out: Visual Growth Reduction (%) 14 Days After Application ABUTH
[8] = wild poinsettia (Euphorbia heterophylla), read-out: Visual Growth Reduction (%) 14 Days After Application EPHHL
[9] = barnyardgrass (Echinochloa crus-galli), read-out: Visual Growth Reduction (%) 14 Days After Application ECHCG
[10] = giant foxtail (Setaria faberi), read-out: Visual Growth Reduction (%) 14 Days After Application SETFA
[11] = maize, corn (Zea mays), read-out: Visual Growth Reduction (%) 14 Days After Application ZEAMX
[12] = rice (Oryza sativa), read-out: Visual Growth Reduction (%) 14 Days After Application ORYSA
[13] = wheat, spring (Triticum aestivum), read-out: Visual Growth Reduction (%) 14 Days After Application TRZAS
[14] = yellow nutsedge (Cyperus esculentus), read-out: Visual Growth Reduction (%) 14 Days After Application CYPES

SMILES	pest or weed control at 35 g/ha [1, 3]	pest or weed control at 70 g/ha [1, 3]	pest or weed control at 140 g/ha [1, 3]	pest or weed control at 35 g/ha [1, 4]	pest or weed control at 70 g/ha [1, 4]	pest or weed control at 140 g/ha [1, 4]	pest or weed control at 35 g/ha [1, 5]	pest or weed control at 70 g/ha [1, 5]	pest or weed control at 140 g/ha [1, 5]	pest or weed control at 35 g/ha [1, 6]	pest or weed control at 70 g/ha [1, 6]	pest or weed control at 140 g/ha [1, 6]	pest or weed control at 35 g/ha [1, 7]	pest or weed control at 70 g/ha [1, 7]	pest or weed control at 140 g/ha [1, 7]	pest or weed control at 35 g/ha [1, 8]	pest or weed control at 70 g/ha [1, 8]	pest or weed control at 140 g/ha [1, 8]	pest or weed control at 35 g/ha [2, 9]	pest or weed control at 70 g/ha [2, 9]	other results
COC(=O)c1nc(-c2cc3c(cc2OC)OC(F)(F)O3)cc(N)c1Cl [Compound 38]	0 to 29%	0 to 29%	0 to 29%	0 to 29%	0 to 29%	0 to 29%	0 to 29%	60 to 74%	60 to 74%	0 to 29%	0 to 29%	60 to 74%	0 to 29%	0 to 29%	0 to 29%	0 to 29%	0 to 29%	0 to 29%	0 to 29%	0 to 29%	pest or weed control at 140 g/ha [2, 9]: 0 to 29%; pest or weed control at 35 g/ha [2, 10]: 0 to 29%; pest or weed control at 70 g/ha [2, 10]: 0 to 29%; pest or weed control at 140 g/ha [2, 10]: 0 to 29%; pest or weed control at 35 g/ha [2, 11]: 0 to 29%; pest or weed control at 70 g/ha [2, 11]: 0 to 29%; pest or weed control at 140 g/ha [2, 11]: 0 to 29%; pest or weed control at 35 g/ha [2, 12]: 0 to 29%; pest or weed control at 70 g/ha [2, 12]: 0 to 29%; pest or weed control at 140 g/ha [2, 12]: 0 to 29%; pest or weed control at 35 g/ha [2, 13]: 0 to 29%; pest or weed control at 70 g/ha [2, 13]: 0 to 29%; pest or weed control at 140 g/ha [2, 13]: 0 to 29%; pest or weed control at 35 g/ha [2, 14]: 0 to 29%; pest or weed control at 70 g/ha [2, 14]: 0 to 29%; pest or weed control at 140 g/ha [2, 14]: 0 to 29%
Nc1cc(-c2ccc3c(c2F)OC(F)(F)O3)nc(C(=O)O)c1Cl [Compound 41]	85 to 94%	85 to 94%	85 to 94%	60 to 74%	75 to 84%	75 to 84%	95 to 100%	95 to 100%	95 to 100%	0 to 29%	60 to 74%	60 to 74%	60 to 74%	75 to 84%	75 to 84%	95 to 100%	95 to 100%	95 to 100%	75 to 84%	85 to 94%	pest or weed control at 140 g/ha [2, 9]: 95 to 100%; pest or weed control at 35 g/ha [2, 10]: 75 to 84%; pest or weed control at 70 g/ha [2, 10]: 85 to 94%; pest or weed control at 140 g/ha [2, 10]: 85 to 94%; pest or weed control at 35 g/ha [2, 11]: 60 to 74%; pest or weed control at 70 g/ha [2, 11]: 75 to 84%; pest or weed control at 140 g/ha [2, 11]: 75 to 84%; pest or weed control at 35 g/ha [2, 12]: 0 to 29%; pest or weed control at 70 g/ha [2, 12]: 0 to 29%; pest or weed control at 140 g/ha [2, 12]: 0 to 29%; pest or weed control at 35 g/ha [2, 13]: 30 to 44%; pest or weed control at 70 g/ha [2, 13]: 30 to 44%; pest or weed control at 140 g/ha [2, 13]: 45 to 59%; pest or weed control at 35 g/ha [2, 14]: 0 to 29%; pest or weed control at 70 g/ha [2, 14]: 0 to 29%; pest or weed control at 140 g/ha [2, 14]: 0 to 29%
Nc1cc(-c2cc3c(cc2F)OC(F)(F)O3)nc(C(=O)O)c1Cl [Compound 42]	85 to 94%	85 to 94%	85 to 94%	95 to 100%	95 to 100%	95 to 100%	95 to 100%	95 to 100%	95 to 100%	45 to 59%	60 to 74%	75 to 84%	85 to 94%	85 to 94%	85 to 94%	95 to 100%	95 to 100%	95 to 100%	95 to 100%	95 to 100%	pest or weed control at 140 g/ha [2, 9]: 95 to 100%; pest or weed control at 35 g/ha [2, 10]: 60 to 74%; pest or weed control at 70 g/ha [2, 10]: 75 to 84%; pest or weed control at 140 g/ha [2, 10]: 75 to 84%; pest or weed control at 35 g/ha [2, 11]: 60 to 74%; pest or weed control at 70 g/ha [2, 11]: 75 to 84%; pest or weed control at 140 g/ha [2, 11]: 75 to 84%; pest or weed control at 35 g/ha [2, 12]: 30 to 44%; pest or weed control at 70 g/ha [2, 12]: 30 to 44%; pest or weed control at 140 g/ha [2, 12]: 30 to 44%; pest or weed control at 35 g/ha [2, 13]: 60 to 74%; pest or weed control at 70 g/ha [2, 13]: 60 to 74%; pest or weed control at 140 g/ha [2, 13]: 60 to 74%; pest or weed control at 35 g/ha [2, 14]: 95 to 100%; pest or weed control at 70 g/ha [2, 14]: 95 to 100%; pest or weed control at 140 g/ha [2, 14]: 95 to 100%
Nc1cc(-c2cc(F)c3c(c2)OC(F)(F)O3)nc(C(=O)O)c1Cl [Compound 44]	0 to 29%	0 to 29%	0 to 29%	0 to 29%	0 to 29%	0 to 29%	0 to 29%	0 to 29%	0 to 29%	0 to 29%	0 to 29%	0 to 29%	0 to 29%	0 to 29%	0 to 29%	0 to 29%	0 to 29%	0 to 29%	60 to 74%	60 to 74%	pest or weed control at 140 g/ha [2, 9]: 75 to 84%; pest or weed control at 35 g/ha [2, 10]: 0 to 29%; pest or weed control at 70 g/ha [2, 10]: 0 to 29%; pest or weed control at 140 g/ha [2, 10]: 0 to 29%; pest or weed control at 35 g/ha [2, 11]: 0 to 29%; pest or weed control at 70 g/ha [2, 11]: 0 to 29%; pest or weed control at 140 g/ha [2, 11]: 0 to 29%; pest or weed control at 35 g/ha [2, 12]: 0 to 29%; pest or weed control at 70 g/ha [2, 12]: 0 to 29%; pest or weed control at 140 g/ha [2, 12]: 0 to 29%; pest or weed control at 35 g/ha [2, 13]: 0 to 29%; pest or weed control at 70 g/ha [2, 13]: 0 to 29%; pest or weed control at 140 g/ha [2, 13]: 0 to 29%; pest or weed control at 35 g/ha [2, 14]: 0 to 29%; pest or weed control at 70 g/ha [2, 14]: 0 to 29%; pest or weed control at 140 g/ha [2, 14]: 0 to 29%
